Measured values published in publication PMC7867085, “In Vitro and In Vivo Antitumor Activity of Indolo[2,3-b] Quinolines, Natural Product Analogs from Neocryptolepine Alkaloid” (Molecules, 2021).

Test system: Swiss albino mice
Test: Acute / short-term toxicity study, single subcutaneous dose
Assay type: in vivo
Conditions: for No. of Death: 7 mice; for No. of Death / % Mortality: observed 24 h
Description: To confirm the safety of indoloquinoline compounds, acute and short-term toxicity studies were done. Forty-two Swiss albino mice were divided into six groups of seven mice each. The first five groups were subcutaneously injected in single graded doses. The first five groups were given a single dose of graded doses (400, 800, 1200, 1600, and 2000 mg/kg body weight) of indoloquinoline analog containing 11-substituted N-methyl piperazinyl side-chain 6d by the subcutaneous route, while the last group received 0.2 mL of (water: DMSO, 7:3) by the same route. The animals were then observed for 24 h for toxicity signs and death. The LD50 of 6d was calculated using the arithmetic methods of Karber as modified by Aliu and Nwude. The mortality rates and calculated LD50 are presented in (Table 3).

In the case of “5-Methyl-N-(4-methylpiperazin-1-yl)-5H-indolo[2,3-b] Quinolin-11-amine [Compound 6d]”, the “No. of Death” value (400 mg/kg SC single dose) is reported as 0, the “% Mortality” value (400 mg/kg SC single dose) is reported as 0% and the “No. of Death” value (800 mg/kg SC single dose) is reported as 2. For the same substance, the “% Mortality” value (800 mg/kg SC single dose) was 28.5%, the “No. of Death” value (1200 mg/kg SC single dose) was 4 and the “% Mortality” value (1200 mg/kg SC single dose) was 57.1%. For the same substance, the “No. of Death” value (1600 mg/kg SC single dose) was 6, the “% Mortality” value (1600 mg/kg SC single dose) was 85.7% and the “No. of Death” value (2000 mg/kg SC single dose) was 7. The “% Mortality” value (2000 mg/kg SC single dose) was 100% and the LD50 (subcutaneous, mice, arithmetic method of Karber) was 1000 mg/kg.
